Where two headings read alike, the source gives them in different places.
Experiments:
MCF-7 cells = assay: Cell viability (MTT) assay, MCF-7; assay type: cell-based; conditions: Homo sapiens, read-out: Cell cytotoxicity assay IC50 MCF-7
Experimental: (§1) Human breast cancer (MCF-7), and human prostate cancer (PC-3) cells were cultured in their respective media supplemented with 10% fetal bovine serum (FBS). The cells were cultured at 1 × 10^4 cells per well, in a 96-well plate and incubated for 24-48 h to obtain cell attachments. Afterwards, the cells were treated with different concentrations of test compounds for 48 h and then incubated with 20 µL of 5 mg/mL 3-(4,5-dimethylthiazol-2-yl)-2,5-diphenyl tetrazolium bromide (MTT) solution for 4 h. After aspiration of the MTT solution, 100 µL of DMSO was added to each well to dissolve formazan crystals. The absorbance of each well was measured at the wavelength of 550 nm using an enzyme-linked immunosorbent assay reader. IC50 values were calculated from the curves generated by plotting the percentage of the viable cells versus the test concentration on a logarithmic scale using SigmaPlot 10.0 software.

PC-3 cells = assay: Cell viability (MTT) assay, PC-3; assay type: cell-based; conditions: Homo sapiens, read-out: Cell cytotoxicity assay IC50 PC-3
Experimental: as §1

[1] = molecular target: T1, 20S proteasome ChT-L activity (Homo sapiens, UniProt P28074); assay: Cell-based 20S proteasome ChT-L inhibition assay in MCF-7 cells
T1 construct: This assay measures the ChT-L protease activity in cultured cells; endogenous in cells; host or cells: MCF-7 and PC-3 cells
Experimental: (§2) Cell-based proteasome inhibition assay
(§3) The effect of the derivatives on the 20S proteasome activity was determined using the 20S proteasome activity assay kit from Sigma (USA). This assay measures the ChT-L protease activity in cultured cells and is based on the detection of the fluorophore R110 after cleavage from the labeled substrate LLVY-R110. MCF-7 and PC-3 cells were pretreated with different concentrations of corresponding compounds and proteasome activities were determined according to the manufacturer′s protocol. Proteasome activity generates strongly green fluorescent R110, which was monitored at an excitation wavelength of 480 nm and emission of […] on a microplate fluorescence reader. All data were calculated by subtracting the blank control.

[2] = molecular target: T1, 20S proteasome ChT-L activity; assay: Cell-based 20S proteasome ChT-L inhibition assay in PC-3 cells
Experimental: as §2, §3

[3] = MCF7, MCF-7, MTT, 48 h treatment, mean ± SD of three independent experiments
[4] = PC-3, MTT, 48 h treatment, mean ± SD of three independent experiments
[5] = MCF7, MCF-7 cells, percent inhibition at 10 µM, ChT-L activity, LLVY-R110 substrate, read-out: 20S proteasome inhibition, Inhibition [%] MCF-7
[6] = MCF-7 cells, ChT-L activity, LLVY-R110 substrate
[7] = PC-3 cells, percent inhibition at 25 µM, ChT-L activity, LLVY-R110 substrate, read-out: 20S proteasome inhibition, Inhibition [%] PC-3
[8] = PC-3 cells, ChT-L activity, LLVY-R110 substrate

Row | inhibition at 10 µM ([1]; MCF7, read-out: 20S proteasome inhibition, Inhibition [%] MCF-7) [%] | inhibition at 25 µM ([2]; PC-3, read-out: 20S proteasome inhibition, Inhibition [%] PC-3) [%] | inhibition at 10 µM [1, 5] [%] | IC50 [1, 6] [µM] | inhibition at 25 µM [2, 7] [%] | IC50 [2, 8] [µM] | melting point [°C] | SMILES | IC50 (MCF-7 cells; MCF7, 48 h) [µM] | IC50 (PC-3 cells; PC-3, 48 h) [µM] | IC50 (MCF-7 cells; [3]) [µM] | IC50 (PC-3 cells; [4]) [µM]
1 | – | – | 90.3 ± 5 | 1.7 ± 0.02 | 72.4 ± 2.2 | 21.7 ± 1.17 | – | O=[N+]([O-])C(=Cc1ccccc1)CO [Compound 2a, 2-Nitro-3-phenylprop-2-en-1-ol] | 2.4 ± 0.08 | 29.27 ± 0.12 | – | –
2 | – | – | 85 ± 6.1 | 0.71 ± 0.01 | 86.3 ± 5 | 17.8 ± 1.05 | – | COc1ccc(C=C(CO)[N+](=O)[O-])cc1 [Compound 2d, 2-Nitro-3-(4-methoxyphenyl)prop-2-en-1-ol] | 1.17 ± 0.04 | 32.3 ± 2.04 | – | –
3 | – | – | 50.4 ± 3.9 | 11.1 ± 0.17 | 63.9 ± 4.4 | 40.22 ± 0.07 | 98 to 100 | O=[N+]([O-])C(=Cc1ccc(Cl)cc1)Cc1ccccc1 [Compound 4b, 3-(4-chlorophenyl)-2-nitroallylbenzene] | 15.9 ± 0.2 | 70.74 ± 0.08 | – | –
4 | – | – | 48.2 ± 2.8 | 9.92 ± 0.27 | 50.8 ± 2.7 | 30.1 ± 3.74 | 105 to 107 | Cc1ccc(C=C(Cc2ccccc2)[N+](=O)[O-])cc1 [Compound 4c, 3-(4-methylphenyl)-2-nitroallylbenzene] | 16.56 ± 0.12 | 62.7 ± 4.21 | – | –
5 | – | – | 60.4 ± 4.1 | 3.57 ± 0.13 | 54.4 ± 3.3 | 42.8 ± 5.11 | 53 to 56 | COc1ccc(C=C(Cc2ccccc2)[N+](=O)[O-])cc1 [Compound 4d, 3-(4-methoxyphenyl)-2-nitroallylbenzene] | 4.72 ± 0.07 | 79.6 ± 4.6 | – | –
6 | – | – | – | > 50 | – | > 50 | 110 to 113 | CN(C)c1ccc(C=C(Cc2ccccc2)[N+](=O)[O-])cc1 [Compound 4e, N, N-dimethyl-4-(2-nitro-3-phenylprop-1-enyl)benzenamine] | 20.85 ± 0.09 | 332 ± 12.3 | – | –
7 | – | – | 45.7 ± 3.6 | 3.82 ± 0.15 | 50.2 ± 3.5 | 20.5 ± 1.09 | – | COc1ccc(C=C(CC(C)C)[N+](=O)[O-])cc1 [Compound 6b, 1-methoxy-4-(4-methyl-2-nitropent-1-enyl)benzene] | 5.27 ± 0.03 | 60.07 ± 0.01 | – | –

More lines, now with the values behind:

Row | SMILES | inhibition at 10 µM ([1]; MCF7, read-out: 20S proteasome inhibition, Inhibition [%] MCF-7) [%] | inhibition at 25 µM ([2]; PC-3, read-out: 20S proteasome inhibition, Inhibition [%] PC-3) [%] | inhibition at 10 µM [1, 5] [%] | IC50 [1, 6] [µM] | inhibition at 25 µM [2, 7] [%] | IC50 [2, 8] [µM] | melting point [°C] | IC50 (MCF-7 cells; MCF7, 48 h) [µM] | IC50 (PC-3 cells; PC-3, 48 h) [µM] | IC50 (MCF-7 cells; [3]) [µM] | IC50 (PC-3 cells; [4]) [µM]
8 | CC(C)C[C@H](NC(=O)[C@H](Cc1ccccc1)NC(=O)c1cnccn1)B(O)O [Bortezomib, bortezomib, reference compound] | 86.7 ± 5.1 | 74 ± 4.6 | – | – | – | – | – | 0.04 ± 0.01 | 0.26 ± 0.02 | – | –
9 | O=[N+]([O-])C=Cc1ccccc1 [Compound 1a, (2-nitrovinyl)benzene] | – | – | 85.2 ± 5.9 | 3.67 ± 0.27 | 78.6 ± 3.2 | 38 ± 3.24 | – | – | – | 5.23 ± 0.17 | 39.9 ± 0.97
10 | O=[N+]([O-])C=Cc1ccc(Cl)cc1 [Compound 1b, 1-chloro-4-(2-nitrovinyl)benzene] | – | – | 93.9 ± 2.4 | 5.63 ± 0.39 | 84.3 ± 2.7 | 48 ± 5.39 | – | – | – | 7.11 ± 0.22 | 78.4 ± 3.22
11 | Cc1ccc(C=C[N+](=O)[O-])cc1 [Compound 1c, 1-methyl-4-(2-nitrovinyl)benzene] | – | – | 88.9 ± 4.6 | 5.23 ± 0.15 | 80.1 ± 5.4 | 36 ± 2.14 | – | – | – | 9.63 ± 0.25 | 70.4 ± 4.33
12 | COc1ccc(C=C[N+](=O)[O-])cc1 [Compound 1d, 1-methoxy-4-(2-nitrovinyl) benzene] | – | – | 89.6 ± 4.4 | 1.21 ± 0.07 | 84.5 ± 3.9 | 29.4 ± 2.91 | – | – | – | 2.2 ± 0.06 | 60.3 ± 5.11
13 | CN(C)c1ccc(C=C[N+](=O)[O-])cc1 [Compound 1e, N, N-dimethyl-4-(2-nitrovinyl)benzenamine] | – | – | – | > 50 | – | > 50 | – | – | – | 43.9 ± 1.27 | 188 ± 10.3
14 | O=[N+]([O-])C(=Cc1ccc(Cl)cc1)CO [Compound 2b, 2-Nitro-3-(4-chlorophenyl)prop-2-en-1-ol] | – | – | 44.1 ± 2.8 | 10.3 ± 0.17 | 40.3 ± 1.9 | 22.02 ± 0.09 | – | 17.34 ± 0.13 | 20.79 ± 0.01 | – | –
15 | Cc1ccc(C=C(CO)[N+](=O)[O-])cc1 [Compound 2c, 2-Nitro-3-(4-tolyl)prop-2-en-1-ol] | – | – | 93.4 ± 5.2 | 2.82 ± 0.06 | 87 ± 4.1 | 25.9 ± 2.37 | 52 to 54 | 5.08 ± 0.05 | 46.6 ± 6.72 | – | –
16 | O=[N+]([O-])C(=Cc1ccccc1)Cc1ccccc1 [Compound 4a, 3-(phenyl)-2-nitroallylbenzene] | – | – | 54.9 ± 4.3 | 7.56 ± 0.11 | 42.7 ± 3.6 | 39.6 ± 16.3 | – | 10.7 ± 0.16 | 48.8 ± 2.71 | – | –
17 | Cc1ccc(C=C(CC(C)C)[N+](=O)[O-])cc1 [Compound 6a, 1-methyl-4-(4-methyl-2-nitropent-1-enyl)benzene] | – | – | 43.9 ± 0.98 | 13.7 ± 4.64 | 40.3 ± 1.2 | 36.1 ± 4.1 | – | 24.08 ± 0.18 | 73.1 ± 3.63 | – | –

— publication PMC6094432, “Design, Synthesis and Evaluation of Substituted Aryl-2-Nitrovinyl Derivatives as Small Molecules Proteasome Inhibitors” (Iranian Journal of Pharmaceutical Research : IJPR, 2018)
